According to patent US11739122B2, “Glycopeptide antibiotic compounds, methods for producing the same, and uses thereof” (Academia Sinica, priority 2019, dated 2023):
In brackets after ≈: the same amount, converted by molar mass.

Columns and labels:
[1] = test system: MRSA ATCC 700787; assay: Minimal bactericidal concentration (MBC); format: cell-based, Staphylococcus aureus
Method: Minimal Bactericidal Concentration (MBC) Determination
The MBC test is an extension of the MIC examination. MBC was determined by performing subcultures on antibiotic-free agar from both the well where there was no visible growth at the MIC of a tested antibiotic and from the positive control well (with inoculum but without compounds). The plates were incubated at 37° C. for 18-24 hours. The MBC was taken as the lowest concentration of the test compound that results in more than 99.9% reduction of viable bacteria. If MBC was one or two dilutions above a given MIC value (MBC/MIC ratio was less than or equal to four), the antibiotic was considered bactericidal against the test organism.

[2] = test system: HEK293T cells; assay: Alamar Blue cell viability assay; format: cell-based, human; settings: up to 100 μgmL^−1; 2 and 24 h
Method: The Alamar Blue (AB) assay, which includes a redox indicator that changes color or emits fluorescence in response to a metabolic activity, was used to assess in vitro mammalian cell cytotoxicity (human embryonic kidney cells (HEK293T)) upon an antibiotic treatment. 2×10^5 cellsmL^−1 were allowed to adhere on 96-well plates overnight at 37° C. in a humidified incubator (5% CO2 atmosphere). Tested compounds were dissolved in 50% DMSO to make 1 mgmL^−1 of a stock solution. Cells were separately aliquoted with 5 μL of a test compound (final concentration: 100 μgmL^−1) and incubated. PBS and 50% DMSO, which was used to dissolve compounds, served as a control. Cell viability was triplicated and assessed at 2 and 24 hour time points for each test compound, on which the measurements followed the manufacturer protocol.

[3] = test system: MRSA ATCC 700787; assay: Thin-section TEM, cell wall morphology; format: cell-based, Staphylococcus aureus
Method: Thin-Section Transmission Electron Microscopy (TEM)
An overnight cultured MRSA ATCC 700787, VRE ATCC 700221 or A. baumannii ATCC 19606 was individually sub-cultured into a fresh medium. Bacteria at the exponential phase were treated with a given test compound at a concentration of 4×MIC for 1-4 hour at 37° C. and followed by wash and resuspension in PBS. Bacteria cells for the TEM analysis were prepared as follows: Cells were fixed with 2.5% glutaraldehyde for 30 minutes. After the fixation, cells were washed twice with PBS and fixed with 1% osmium tetraoxide for another 30 minutes. All the buffer was removed with distilled water. The cells were then stained with 1% uranyl acetate and dehydrated with a graded ethanol solution. Cells were embedded in resin. Finally, each sample was cut into thin slices of approximately 90 nm with a glass knife and stained with uranyl acetate. The images of bacterial morphological were recorded.
The cell wall/membrane apparently is the targets, while the extent of damage depends on what compound imposes on the strain. […] Cell wall thickening has been a common phenotype in clinical MRSA isolates, which may well be a phenotypic determinant for VRSA. The systemic cell-wall damage may account for the cell-wall biosynthesis crippled all over the cell surface in cell-wall thickening strains, thus leading cells to lysis as a result of the osmotic pressure of cytoplasm.

[4] = test system: A. baumannii ATCC 19606; assay: Inner membrane permeabilization, propidium iodide (PI); format: cell-based, Acinetobacter baumannii; settings: AB
Method: Membrane Permeabilization Assay
The inner membrane and outer membrane permeabilization was determined by propidium iodide (PI) and 1-N-Phenylnaphthylamine (NPN), respectively. MRSA (ATCC 700787) and A. baumannii (ATCC 19606) at mid-log phase were harvested, washed and resuspended in a solution containing 5 mM glucose and 5 mM HEPES at pH 7.2. For the inner membrane permeabilization, 150 μL cell suspension and 50 μL PI (10 μM) were added together and preincubated for 30 minutes or 60 minutes for MRSA or A. baumannii, respectively. For outer membrane permeabilization activity, 150 μL cell suspension and 50 μL NPN (10 μM) were added together and preincubated for 60 minutes. The change of fluorescence intensity was recorded for 8 minutes at 2 minute intervals with excitation and emission wavelength set at 535 nm and 617 nm, respectively for PI and with excitation and emission wavelength set at 350 nm of 420 nm, respectively, for NPN. When 5 μL of a given test compound was added in the solution, the fluorescence intensity was recorded for another 12 minutes.

[5] = test system: VRE ATCC 700221 (vanA); assay: MIC, broth microdilution; format: cell-based, enterococci; settings: VRE ATCC 700221 (vanA)
Outline: (§1)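 Step one, pick colonies from 18-24 h agar plates into broth until 0.5 McFarland turbidity; step two, dilute to approximately 1×10^8 CFU mL^−1; step three, incubate at 37° C for 18-24 h and score visible growth.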

[6] = test system: VRE ATCC 700425 (vanC); assay: MIC, broth microdilution; format: cell-based, enterococci; settings: VRE ATCC 700425 (vanC)
Outline: as §1

[7] = test system: VRE ATCC 700802 (vanB); assay: MIC, broth microdilution; format: cell-based, enterococci; settings: VRE ATCC 700802 (vanB)
Outline: as §1

MIC [5]: >16 µg/mL
MIC [6]: 1 µg/mL (≈ 0.673 µM)
MIC [7]: 0.5 µg/mL (≈ 0.336 µM)
Compound: CCCCCCCC(=O)N[C@H]1[C@H](O[C@@H]2c3ccc(c(Cl)c3)Oc3cc4cc(c3O)Oc3ccc(cc3Cl)C[C@H]3NC(=O)[C@H](N)c5ccc(O)c(c5)Oc5cc(O)cc(c5)[C@H](NC3=O)C(=O)N[C@H]4C(=O)N[C@H]3C(=O)N[C@@H]2C(=O)N[C@H](C(=O)O)c2cc(O)cc(O)c2-c2cc3ccc2O)O[C@H](CO)[C@@H](O)[C@@H]1O [Compound 14, r6,N-octyl-Glc Tei]
MBC [1]: 0.063 µg/mL (≈ 0.0424 µM)
MBC/MIC [1]: 4
cytotoxicity to HEK293T cells [2]: did not exhibit any observable toxicity
cell wall morphology by TEM [3]: cell wall damage toward full cell lysis
inner (cytoplasmic) membrane permeabilization, PI [4]: no activity
